According to patent publication US10150760B2, “Compounds for use in preparing heterocyclic triazole agonists of the APJ receptor” (AMGEN INC., priority 2016, dated 2018):

What follows are molecules tested against human APJ receptor (Homo sapiens (Human), UniProt P35414) (assay: [35S]GTPγS binding assay on membranes from CHO cells stably expressing human APJ receptor). Settings: read-out: Activity hAPJ SPA EC50 IP.
Assay type: biochemical
Experimental: The human APJ receptor was cloned by polymerase chain reaction and the gene encoding the receptor was subcloned in pFLAG-CMV™-3 expression vector (Sigma, Saint Louis, Mo. USA) in-house at Amgen. A GTPγS binding assay was performed on membranes prepared from CHO cells stably expressing human APJ receptor. The optimum experimental conditions for the concentrations of GDP, MgCl2, and NaCl in the assay buffer were initially determined. The assay was performed in assay buffer [20 mM HEPES, pH 7.5, 5 mM MgCl2, and 0.1% (w/v) BSA with 200 mM NaCl, 3 μM GDP] and membranes expressing human APJ receptor/well along with WGA PS beads. The reaction was initiated by addition of 0.2 nM [^35S]GTPγS (Perkin Elmer Life and Analytical Sciences, Waltham USA) in the absence or presence of various ligands and incubated at RT for 90 min. Nonspecific binding was determined in the presence of 100 μM GTPγS and was always less than 0.2% of total binding. All the results presented are means of several independent experiments and analyzed by non-linear regression methods using commercially available program Prism (GraphPad, San Diego, Calif.) to obtain EC50 detailed in Table 38.

Sequence of human APJ receptor (P35414 whole entry): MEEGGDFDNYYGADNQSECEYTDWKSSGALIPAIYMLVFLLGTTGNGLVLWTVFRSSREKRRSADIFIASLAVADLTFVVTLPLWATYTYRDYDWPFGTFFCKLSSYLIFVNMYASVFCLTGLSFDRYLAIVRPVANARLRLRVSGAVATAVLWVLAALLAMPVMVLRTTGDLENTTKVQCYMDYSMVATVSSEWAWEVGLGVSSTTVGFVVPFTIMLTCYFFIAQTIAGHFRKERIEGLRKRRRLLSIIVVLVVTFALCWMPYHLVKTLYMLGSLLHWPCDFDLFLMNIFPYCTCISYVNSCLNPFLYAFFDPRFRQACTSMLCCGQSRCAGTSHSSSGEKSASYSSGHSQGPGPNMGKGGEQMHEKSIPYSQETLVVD

Molecule	EC50 [nM]
COCC1(n2c(NS(=O)(=O)[C@@H](C)[C@H](OC)c3ncc(Cl)cn3)nnc2[C@H]2CCC(C)(C)O2)CC1 (single isomer, unassigned) [Example 290.0, (1R,2S)-1-(5-chloropyrimidin-2-yl)-N-(5-((R)-5,5-dimethyltetrahydrofuran-2-yl)-4-(1-(methoxymethypcyclopropyl)-4H-1,2,4-triazol-3-yl)-1-methoxypropane-2-sulfonamide or (1R,2S)-1-(5-chloropyrimidin-2-yl)-N-(5-((S)-5,5-dimethyltetrahydrofuran-2-yl)-4-(1-(methoxymethyl)cyclopropyl)-4H-1,2,4-triazol-3-yl)-1-methoxypropane-2-sulfonamide]	23
COc1cccc(OC)c1-n1c(NS(=O)(=O)[C@@H](C)[C@H](C)c2ncc(C#N)cn2)nnc1[C@@H]1CCCO1 (single isomer, unassigned) [Example 24.0, (2S,3R)-3-(5-Cyano-2-pyrimidinyl)-N-(4-(2,6-dimethoxyphenyl)-5-((2S)-tetrahydro-2-furanyl)-4H-1,2,4-triazol-3-yl)-2-butanesulfonamide or (2S,3R)-3-(5-cyano-2-pyrimidinyl)-N-(4-(2,6-dimethoxyphenyl)-5-((2R)-tetrahydro-2-furanyl)-4H-1,2,4-triazol-3-yl)-2-butanesulfonamide]	4.5
CO[C@H](c1ncc(Cl)cn1)[C@H](C)S(=O)(=O)Nc1nnc([C@H]2CCOC2)n1Cc1ccon1 (single isomer, unassigned) [Example 401.0, (1R,2S)-1-(5-chloro-2-pyrimidinyl)-1-methoxy-N-(4-(1,2-oxazol-3-ylmethyl)-5-((3R)-tetrahydro-3-furanyl)-4H-1,2,4-triazol-3-yl)-2-propanesulfonamide or (1R,2S)-1-(5-chloro-2-pyrimidinyl)-1-methoxy-N-(4-(1,2-oxazol-3-ylmethyl)-5-((3S)-tetrahydro-3-furanyl)-4H-1,2,4-triazol-3-yl)-2-propanesulfonamide]	100
(1S,2S)-N-(4-(1,3-dimethoxy-2-propanyl)-5-((2R,5R)-5-methyltetrahydro-2-furanyl)-4H-1,2,4-triazol-3-yl)-1-(5-methoxy-2-pyrimidinyl)-1-(2-propanyloxy)-2-propanesulfonamide or (1S,2S)-N-(4-(1,3-dimethoxy-2-propanyl)-5-((2S,5S)-5-methyltetrahydro-2-furanyl)-4H-1,2,4-triazol-3-yl)-1-(5-methoxy-2-pyrimidinyl)-1-(2-propanyloxy)-2-propanesulfonamide [Example 363.0]	28
COc1cccc(OC)c1-n1c(NS(=O)(=O)[C@@H](C)[C@H](C)c2ncc(C)cn2)nnc1[C@H]1CCCO1 (mixture of isomers) [Example 48.0, (2S,3R)-N-(4-(2,6-dimethoxyphenyl)-5-((R)-tetrahydrofuran-2-yl)-4H-1,2,4-triazol-3-yl)-3-(5-methylpyrimidin-2-yl)butane-2-sulfonamide and (2S,3R)-N-(4-(2,6-dimethoxyphenyl)-5-((S)-tetrahydrofuran-2-yl)-4H-1,2,4-triazol-3-yl)-3-(5-methylpyrimidin-2-yl)butane-2-sulfonamide]	3.9
COc1cccc(OC)c1-n1c(NS(=O)(=O)[C@@H](C)[C@H](C)c2ncc(C)cn2)nnc1[C@@H]1CCO[C@@H]1C (single isomer, unassigned) [Example 121.0, (2S,3R)-N-(4-(2,6-dimethoxyphenyl)-5-((2R,3S)-2-methyltetrahydrofuran-3-yl)-4H-1,2,4-triazol-3-yl)-3-(5-methylpyrimidin-2-yl)butane-2-sulfonamide or (2S,3R)-N-(4-(2,6-dimethoxyphenyl)-5-((2S,3R)-2-methyltetrahydrofuran-3-yl)-4H-1,2,4-triazol-3-yl)-3-(5-methylpyrimidin-2-yl)butane-2-sulfonamide]	880
COc1cccc(OC)c1-n1c(NS(=O)(=O)[C@@H](C)[C@H](C)c2ncc(Cl)cn2)nnc1[C@H]1CCO[C@@H]1C (single isomer, unassigned) [Example 117.0, (2S,3R)-3-(5-chloropyrimidin-2-yl)-N-(4-(2,6-dimethoxyphenyl)-5-((2R,3R)-2-methyltetrahydrofuran-3-yl)-4H-1,2,4-triazol-3-yl)butane-2-sulfonamide or (2S,3R)-3-(5-chloropyrimidin-2-yl)-N-(4-(2,6-dimethoxyphenyl)-5-((2S,3S)-2-methyltetrahydrofuran-3-yl)-4H-1,2,4-triazol-3-yl)butane-2-sulfonamide]	49
COc1cccc(OC)c1-n1c(NS(=O)(=O)[C@@H](C)[C@@H](OC(C)C)c2ncc(Cl)cn2)nnc1[C@H]1CCC(=O)N1 (single isomer, unassigned) [Example 400.0, (1S,2S)-1-(5-chloro-2-pyrimidinyl)-N-(4-(2,6-dimethoxyphenyl)-5-((2R)-5-oxo-2-pyrrolidinyl)-4H-1,2,4-triazol-3-yl)-1-(2-propanyloxy)-2-propanesulfonamide or (1S,2S)-1-(5-chloro-2-pyrimidinyl)-N-(4-(2,6-dimethoxyphenyl)-5-((2S)-5-oxo-2-pyrrolidinyl)-4H-1,2,4-triazol-3-yl)-1-(2-propanyloxy)-2-propanesulfonamide]	330
(1S,2S)-N-(4-(2,6-dimethoxyphenyl)-5-((S)-5,5-dimethyltetrahydrofuran-2-yl)-4H-1,2,4-triazol-3-yl)-1-isopropoxy-1-(5-methylpyrimidin-2-yl)propane-2-sulfonamide or (1S,2S)-N-(4-(2,6-dimethoxyphenyl)-5-((R)-5,5-dimethyltetrahydrofuran-2-yl)-4H-1,2,4-triazol-3-yl)-1-isopropxy-1-(5-methylpyrimidin-2-yl)propane-2-sulfonamide [Example 210.0]	0.62
COc1cccc(OC)c1-n1c(NS(=O)(=O)[C@@H](C)[C@H](C)c2ncc(F)cn2)nnc1[C@@H]1COC(C)(C)C1 (single isomer, unassigned) [Example 395.0, (2S,3R)-N-(4-(2,6-dimethoxyphenyl)-5-((3R)-5,5-dimethyltetrahydro-3-furanyl)-4H-1,2,4-triazol-3-yl)-3-(5-fluoro-2-pyrimidinyl)-2-butanesulfonamide or (2S,3R)-N-(4-(2,6-dimethoxyphenyl)-5-((3S)-5,5-dimethyltetrahydro-3-furanyl)-4H-1,2,4-triazol-3-yl)-3-(5-fluoro-2-pyrimidinyl)-2-butanesulfonamide]	67
COCC1(n2c(NS(=O)(=O)[C@@H](C)[C@H](OC)c3ncc(Cl)cn3)nnc2[C@H]2COCCO2)CC1 (single isomer, unassigned) [Example 342.0, (1R,2S)-N-(5-((S)-1,4-dioxan-2-yl)-4-(1-(methoxymethyl)cyclopropyl)-4H-1,2,4-triazol-3-yl)-1-(5-chloropyrimidin-2-yl)-1-methoxypropane-2-sulfonamide or (1R,2S)-N-(5-((R)-1,4-dioxan-2-yl)-4-(1-(methoxymethyl)cyclopropyl)-4H-1,2,4-triazol-3-yl)-1-(5-chloropyrimidin-2-yl)-1-methoxypropane-2-sulfonamide]	100
(2R)-N-(4-(2,6-dimethoxyphenyl)-5-(tetrahydro-2H-pyran-4-yl)-4H-1,2,4-triazol-3-yl)-1-(5-fluoro-2-pyrimidinyl)-2-propanesulfonamide or (2S)-N-(4-(2,6-dimethoxyphenyl)-5-(tetrahydro-2H-pyran-4-yl)-4H-1,2,4-triazol-3-yl)-1-(5-fluoro-2-pyrimidinyl)-2-propanesulfonamide [Example 16.0]	380
(2R)-N-(4-(2,6-dimethoxyphenyl)-5-(tetrahydro-2H-pyran-4-yl)-4H-1,2,4-triazol-3-yl)-1-(5-fluoro-2-pyrimidinyl)-2-propanesulfonamide and (2S)-N-(4-(2,6-dimethoxyphenyl)-5-(tetrahydro-2H-pyran-4-yl)-4H-1,2,4-triazol-3-yl)-1-(5-fluoro-2-pyrimidinyl)-2-propanesulfonamide [Example 15.0]	470
CO[C@H](c1cnc(C)cn1)[C@H](C)S(=O)(=O)Nc1nnc([C@H]2CCCOC2)n1C1(C)CC1 (single isomer, unassigned) [Example 130.0, (1R,2S)-1-methoxy-N-(4-(1-methylcyclopropyl)-5-((R)-tetrahydro-2H-pyran-3-yl)-4H-1,2,4-triazol-3-yl)-1-(5-methylpyrazin-2-yl)propane-2-sulfonamide or (1R,2S)-1-methoxy-N-(4-(1-methylcyclopropyl)-5-((S)-tetrahydro-2H-pyran-3-yl)-4H-1,2,4-triazol-3-yl)-1-(5-methylpyrazin-2-yl)propane-2-sulfonamide]	1800
CO[C@H](c1ncc(Cl)cn1)[C@H](C)S(=O)(=O)Nc1nnc([C@H]2CCCO2)n1C1(C)CC1 (single isomer, unassigned) [Example 111.0, (1R,2S)-1-(5-chloropyrimidin-2-yl)-1-methoxy-N-(4-(1-methylcyclopropyl)-5-((S)-tetrahydrofuran-2-yl)-4H-1,2,4-triazol-3-yl)propane-2-sulfonamide or (1R,2S)-1-(5-chloropyrimidin-2-yl)-1-methoxy-N-(4-(1-methylcyclopropyl)-5-((R)-tetrahydrofuran-2-yl)-4H-1,2,4-triazol-3-yl)propane-2-sulfonamide]	240
